# Active and inactive are the calls of the source. The rule behind the calls is not given here.
# Tests used:
# MCF7 [1] = assay: Induction of cell cycle arrest in human MCF7 cells assessed as accumulation of cells at G1 phase at 1 uM after irradiation for 30 mins by propidium iodide based flow cytometry analysis; format: functional
# MCF7 [2] = assay: Induction of apoptosis in human MCF7 cells at 1 uM after irradiation for 30 mins annexin V-FITC/PI double staining method; format: functional, cell-based
# [3] = biological target: T1, Estrogen receptor (Homo sapiens) (UniProt P03372); assay: Induction of degradation of human ERalpha in human MCF7 cells at 0.01 to 1 uM incubated for 6 hrs followed by irradiated light of 460 nm for 45 mins measured after 3 hrs by immunoblot analysis; format: cell-based; conditions: dose 0.01-1 µM, time 9.0 hrs
# T1 sequence (whole entry): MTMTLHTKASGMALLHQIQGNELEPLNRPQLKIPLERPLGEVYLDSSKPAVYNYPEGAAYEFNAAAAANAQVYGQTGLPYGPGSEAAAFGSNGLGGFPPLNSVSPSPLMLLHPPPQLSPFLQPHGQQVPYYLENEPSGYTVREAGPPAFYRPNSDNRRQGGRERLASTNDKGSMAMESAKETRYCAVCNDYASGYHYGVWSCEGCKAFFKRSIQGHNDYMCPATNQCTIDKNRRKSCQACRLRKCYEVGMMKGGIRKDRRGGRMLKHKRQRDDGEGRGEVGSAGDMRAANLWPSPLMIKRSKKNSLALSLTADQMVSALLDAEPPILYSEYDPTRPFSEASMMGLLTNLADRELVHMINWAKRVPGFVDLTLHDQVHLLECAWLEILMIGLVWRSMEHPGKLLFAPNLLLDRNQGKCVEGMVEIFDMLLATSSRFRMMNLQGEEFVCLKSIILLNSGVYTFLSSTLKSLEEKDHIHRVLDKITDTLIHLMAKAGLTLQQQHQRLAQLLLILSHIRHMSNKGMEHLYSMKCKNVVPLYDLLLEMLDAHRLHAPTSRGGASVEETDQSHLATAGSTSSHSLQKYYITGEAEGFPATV
# MCF-10A [4] = assay: Cytotoxicity against human MCF-10A cells upto 100 uM assessed as cell viability at irradiation for 15 to 45 mins measured after 72 hrs; format: toxicity, cell-based; conditions: time 72.25-72.75 hrs
# Estrogen receptor [5] = biological target: T2, Estrogen receptor (Homo sapiens, UniProt P03372); assay: Induction of degradation of human ERalpha in MCF7 cells irradiated with 460 light for 30 mins; format: cell-based
# T2 sequence (P03372 whole entry): T1 sequence (whole entry)
# MCF7 [6] = assay: Induction of cell cycle arrest in human MCF7 cells assessed as decrease of cells at G2/M phase after irradiation by propidium iodide based flow cytometry analysis; format: functional; conditions: time 15-45 min, TDE = time-dependent effect
# [7] = biological target: T1, Estrogen receptor (Homo sapiens); assay: Induction of degradation of human ERalpha by generation of singlet oxygen incubated for 3 hrs followed by irradiated with 460 +/- 10 nm LED light for 15 mins by circular dichroism spectroscopy; conditions: time 195.0 min
# MCF7 [8] = assay: Antiproliferative activity against human MCF7 cells under dark condition; format: functional, cell-based
# [9] = biological target: T1, Estrogen receptor (Homo sapiens); assay: Induction of human ERalpha degradation-mediated apoptosis in human MCF7 cells assessed as loss of mitochondrial membrane potential at 0.01 uM irradiated for 45 mins by TMRM fluorescence based cytometric analysis; format: cell-based
# MCF7 [10] = assay: Induction of cell cycle arrest in human MCF7 cells assessed as decrease of cells at S phase after irradiation by propidium iodide based flow cytometry analysis; format: functional; conditions: time 15-45 min, TDE = time-dependent effect
# [11] = biological target: T1, Estrogen receptor (Homo sapiens); assay: Induction of human ERalpha degradation-mediated apoptosis in human MCF7 cells assessed as increase in cytochrome c release from mitochondria at 0.01 uM irradiated for 45 mins by ELISA analysis
# [12] = biological target: T1, Estrogen receptor (Homo sapiens); assay: Induction of degradation of human ERalpha in MCF7 cells at 1 uM incubated for 6 hrs followed by irradiation for 30 min measured for 24 hrs; format: cell-based; conditions: time 30.5 hrs
# [13] = Drug uptake in human MCF7 cells assessed as peak mean fluorescence intensity measured after 6 to 12hrs by cytometric analysis; format: ADME, cell-based
# [14] = biological target: T1, Estrogen receptor (Homo sapiens); assay: Induction of degradation of human ERalpha in human MCF7 cells by generation of singlet oxygen at 1 uM in presence of glutathione by fluorescent probe based DCFH-DA assay; format: cell-based
# [15] = biological target: T1, Estrogen receptor (Homo sapiens); assay: Induction of degradation of human ERalpha irradiated with 460 +/- 10 nm LED light for 15 mins by gel electrophoresis
# MCF7 [16] = assay: Antiproliferative activity against human MCF7 cells assessed as cell viability at irradiation for 45 mins measured after 72 hrs; format: functional, cell-based; conditions: MCF7, light or radiation study
# [17] = biological target: T1, Estrogen receptor (Homo sapiens); assay: Induction of human ERalpha degradation-mediated apoptosis in human MCF7 cells assessed as increase in expression level of Bax at 0.01 uM by ELISA analysis; format: cell-based
# [18] = biological target: T1, Estrogen receptor (Homo sapiens); assay: Induction of degradation of human ERalpha in human MCF7 cells at 1 uM incubated for 1 to 12 hrs in dark after 3 hrs by immunoblot analysis; format: cell-based; conditions: time 4-15 hrs
# [19] = biological target: T1, Estrogen receptor (Homo sapiens); assay: Induction of human ERalpha degradation-mediated apoptosis in human MCF7 cells assessed as increase in expression level of Bak at 0.01 uM by ELISA analysis; format: cell-based
# MCF7 [20] = assay: Antiproliferative activity against human MCF7 cells assessed as cell viability at irradiation for 30 mins daily for 3 days; format: functional, cell-based; conditions: MCF7, light or radiation study
# [21] = biological target: T1, Estrogen receptor (Homo sapiens); assay: Induction of human ERalpha degradation-mediated apoptosis in human MCF7 cells assessed as increase in expression level of Bcl-2 at 0.01 uM irradiated for 45 min by ELISA analysis; format: cell-based
# [22] = biological target: T1, Estrogen receptor (Homo sapiens); assay: Induction of degradation of human ERalpha in MCF7 cells at 0.1 uM incubated for 6 hrs followed by irradiation for 30 min measured after 2 hrs; format: cell-based; conditions: time 8.5 hrs
# [23] = biological target: T1, Estrogen receptor (Homo sapiens); assay: Induction of degradation of human ERalpha in human MCF7 cells assessed as decrease in expression of c-MYC gene at 24 hrs; format: cell-based
# MCF7 [24] = assay: Induction of cell cycle arrest in human MCF7 cells assessed as transition of cells from G1 to S phase after irradiation measured after 24 hrs by propidium iodide based flow cytometry analysis; format: functional
# MCF7 [25] = assay: Induction of cell cycle arrest in human MCF7 cells assessed accumulation of cells at G1 phase after irradiation measured after 16 hrs by propidium iodide based flow cytometry analysis; format: functional
# Estrogen receptor [26] = biological target: T2, Estrogen receptor; assay: Binding affinity to human ERalpha by competitive fluorometric receptor binding assay
# MCF7 [27] = assay: Antiproliferative activity against human MCF7 cells in presence of N-acetyl-L-cysteine irradiated daily; format: functional, cell-based
# [28] = biological target: T1, Estrogen receptor (Homo sapiens); assay: Induction of degradation of human ERalpha in human MCF7 cells at 1 uM incubated for 1 to 6 hrs followed by irradiated light of 460 nm for 30 mins measured after 3 hrs by immunoblot analysis; format: cell-based; conditions: time 4.5-9.5 hrs
# MCF7 [29] = assay: Induction of apoptosis in human MCF7 cells assessed as late apoptotic cells at 0.01 to 1 uM irradiated 30 mins for 3 days by annexin V-FITC/PI double staining method; format: functional, cell-based; conditions: dose 0.01-1 µM
# MCF7 [30] = assay: Antiproliferative activity against human MCF7 cells assessed as cell viability at irradiation for 15 mins daily for 3 days; format: functional, cell-based; conditions: MCF7, light or radiation study
# [31] = biological target: T1, Estrogen receptor (Homo sapiens); assay: Binding affinity to human ERalpha assessed as change in entropy by isothermal titration calorimetry
# MCF7 [32] = assay: Antiproliferative activity against human MCF7 cells assessed as cell viability at irradiation for 45 mins daily for 3 days; format: functional, cell-based; conditions: MCF7, light or radiation study
# MCF7 [33] = assay: Antiproliferative activity against human MCF7 cells in presence of glutathione irradiated daily; format: functional, cell-based
# [34] = biological target: T1, Estrogen receptor (Homo sapiens); assay: Induction of degradation of human ERalpha in MCF7 cells assessed as ERalpha level at 0.1 uM incubated for 6 hrs followed by irradiation for 30 min measured after 16 hrs; format: cell-based; conditions: time 22.5 hrs
# [35] = biological target: T1, Estrogen receptor (Homo sapiens); assay: Induction of degradation of human ERalpha irradiated with 460 +/- 10 nm LED light for 30 to 45 mins by gel electrophoresis; conditions: time 30-45 min
# [36] = biological target: T1, Estrogen receptor (Homo sapiens); assay: Induction of degradation of human ERalpha in human MCF7 cells assessed as decrease in expression of cyclin D1 gene at 24 hrs; format: cell-based
# [37] = biological target: T1, Estrogen receptor (Homo sapiens); assay: Induction of degradation of human ERalpha in human MCF7 cells by generation of singlet oxygen at 1 uM in presence of N-acetyl-L-cysteine by fluorescent probe based DCFH-DA assay; format: cell-based
# [38] = biological target: T1, Estrogen receptor (Homo sapiens); assay: Induction of degradation of human ERalpha in MCF7 cells at 0.01 to 0.1 uM irradiated with 460 light for 15 to 60 mins; format: cell-based; conditions: dose 0.01-0.1 µM, time 15-60 min
# Estrogen receptor [39] = biological target: T2, Estrogen receptor; assay: Induction of degradation of human ERalpha in MCF7 cells irradiated with 460 light for 45 mins; format: cell-based
# [40] = biological target: T1, Estrogen receptor (Homo sapiens); assay: Induction of degradation of human ERalpha in MCF7 cells at 0.1 uM incubated for 6 hrs followed by irradiation for 30 min measured after 2 to 8 hrs; format: cell-based; conditions: time 8.5-14.5 hrs, TDE = time-dependent effect
# MCF7 [41] = assay: Antiproliferative activity against human MCF7 cells assessed as cell viability at irradiation for 15 mins measured after 72 hrs; format: functional, cell-based; conditions: MCF7, light or radiation study
# [42] = biological target: T1, Estrogen receptor (Homo sapiens); assay: Induction of degradation of human ERalpha in human MCF7 cells by generation of singlet oxygen at 1 uM in presence of dithiothreitol by fluorescent probe based DCFH-DA assay; format: cell-based
# MCF7 [43] = assay: Antiproliferative activity against human MCF7 cells assessed as cell viability at irradiation for 30 mins measured after 72 hrs; format: functional, cell-based; conditions: MCF7, light or radiation study
# MCF-10A [44] = assay: Cytotoxicity against human MCF-10A cells upto 100 uM under dark condition; format: toxicity, cell-based
# MCF7 [45] = assay: Induction of cell cycle arrest in human MCF7 cells assessed as accumulation of cells at G1 phase after irradiation by propidium iodide based flow cytometry analysis; format: functional; conditions: time 15-45 min, TDE = time-dependent effect
# [46] = biological target: T1, Estrogen receptor (Homo sapiens); assay: Induction of degradation of human ERalpha by generation of singlet oxygen incubated for 3 hrs followed by irradiated with 460 +/- 10 nm LED light for 30 mins by circular dichroism spectroscopy; conditions: time 210.0 min
# [47] = biological target: T1, Estrogen receptor (Homo sapiens); assay: Induction of human ERalpha degradation-mediated apoptosis in human MCF7 cells assessed as increase in expression level of p53 at 0.01 uM by ELISA analysis; format: cell-based
# MCF7 [48] = assay: Antiproliferative activity against human MCF7 cells in presence of dithiothreitol irradiated daily; format: functional, cell-based
# [49] = biological target: T1, Estrogen receptor (Homo sapiens); assay: Binding affinity to human ERalpha assessed as change in enthalpy by isothermal titration calorimetry
# [50] = biological target: T1, Estrogen receptor (Homo sapiens); assay: Induction of human ERalpha degradation in human MCF7 cells assessed as increase in response of cell to ABT-263-mediated Bcl-2 inhibition; format: cell-based
# MCF7 [51] = assay: Induction of cell cycle arrest in human MCF7 cells assessed as cells at S phase after irradiation measured after 16 hrs by propidium iodide based flow cytometry analysis; format: functional
smiles,measurement,setting,value
Brc1ccc(-c2ccc(N(c3ccccc3)c3ccccc3)cc2)c2nsnc12,Activity,MCF7 [1],inactive
same,Activity,MCF7 [2],inactive
same,Activity,[3],inactive
C[C@]12CC[C@@H]3c4ccc(O)cc4CC[C@H]3[C@@H]1CC[C@@]2(O)C#Cc1ccc(-c2ccc(N(c3ccccc3)c3ccccc3)cc2)c2nsnc12,Activity,MCF-10A [4],Non-Toxic
same,EC50,Estrogen receptor [5],17 µM
same,Activity,MCF7 [6],Tde
same,Activity,[7],Active
same,Activity,MCF7 [8],inactive
same,Activity,[9],Active
same,Activity,MCF7 [10],Tde
same,Activity,[11],Active
same,Activity,[12],Active
same,Drug uptake,[13],Active
same,Activity,[14],inactive
same,Activity,[15],Active
same,IC50,MCF7 [16],5.9 µM
same,Activity,[17],Active
same,Activity,[18],Active
same,Activity,[19],Active
same,IC50,MCF7 [20],0.11 µM
same,Activity,[21],inactive
same,Activity,[22],Active
same,Activity,[23],Active
same,Activity,MCF7 [24],Active
same,Activity,MCF7 [25],Active
same,Ki,Estrogen receptor [26],0.0728 µM
same,Activity,MCF7 [27],inactive
same,Activity,[28],Active
same,Activity,MCF7 [29],Active
same,IC50,MCF7 [30],3.5 µM
same,deltaS,[31],52.2 J/mol/K
same,IC50,MCF7 [32],0.022 µM
same,Activity,MCF7 [33],inactive
same,Activity,[34],90%
same,Activity,[35],Active
same,Activity,[36],Active
same,Activity,[37],inactive
same,Activity,[38],Active
same,EC50,Estrogen receptor [39],0.5 µM
same,Activity,[40],Tde
same,IC50,MCF7 [41],8.9 µM
same,Activity,[42],inactive
same,IC50,MCF7 [43],6.1 µM
same,Activity,MCF-10A [44],Non-Toxic
same,Activity,MCF7 [45],Tde
same,Activity,[46],Active
same,Activity,[47],Active
same,Activity,MCF7 [48],inactive
same,deltaH,[49],-4.39 kcal/mol
same,Activity,[50],Active
same,Activity,MCF7 [51],inactive

# Source: ChEMBL document CHEMBL5042547, “Activable Targeted Protein Degradation Platform Based on Light-triggered Singlet Oxygen” (J Med Chem, 2022)
